Assay: in vitro
Conditions: African green monkey

Row | Compound | CC50 [µM]
1 | Nc1nnc(-c2cnc3cc(Cl)ccc3c2O)s1 [ChloViD2022, 3-(5-amino-1,3,4-thiadiazol-2-yl)-7-chloroquinolin-4-ol] | > 100
2 | Nc1nnc([C@H](O)[C@@H](O)c2nnc(N)s2)s1 [Taroxaz-26, (1R,2R)-1,2-bis(5-amino-1,3,4-thiadiazol-2-yl)ethane-1,2-diol] | > 100
3 | CC(C)C(=O)OC[C@H]1O[C@@H](n2ccc(NO)nc2=O)[C@H](O)[C@@H]1O [Molnupiravir, molnupiravir, reference compound] | > 100
4 | Nc1nnc(CC(O)(Cc2nnc(N)s2)c2nnc(N)s2)s1 [CoViTris2022, 1,2,3-tris(5-amino-1,3,4-thiadiazol-2-yl)propan-2-ol] | > 100

Reference: publication PMC9870775, “Potent Dual Polymerase/Exonuclease Inhibitory Activities of Antioxidant Aminothiadiazoles Against the COVID-19 Omicron Virus: A Promising In Silico/In Vitro Repositioning Research Study” (Molecular Biotechnology, 2023)
